Biological target: T1, human μ opiate receptor (Homo sapiens, UniProt P35372)
T1 construct: purchased PerkinElmer Life Sciences, Zaventem, Belgium RB-HOM; host or cells: CHO-K1 cells (membrane preparation)
Experiment: Affinity for the human μ opiate receptor ([3H]-naloxone displacement, CHO-K1 receptor membrane preparation, SPA)
Assay type: binding
Conditions: test concentration of 1 μM; read-out: μ (binding on the μ opioid receptor, % inhibition)
Method in brief: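 Scintillation proximity binding on human μ receptor membranes from CHO-K1 cells used 1 nmol/l [3H]-naloxone over 90 min at room temperature in 50 mmol/l Tris-HCl, 0.06% BSA. Percent inhibition was recorded at 1 μM.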

T1 sequence (P35372 whole entry): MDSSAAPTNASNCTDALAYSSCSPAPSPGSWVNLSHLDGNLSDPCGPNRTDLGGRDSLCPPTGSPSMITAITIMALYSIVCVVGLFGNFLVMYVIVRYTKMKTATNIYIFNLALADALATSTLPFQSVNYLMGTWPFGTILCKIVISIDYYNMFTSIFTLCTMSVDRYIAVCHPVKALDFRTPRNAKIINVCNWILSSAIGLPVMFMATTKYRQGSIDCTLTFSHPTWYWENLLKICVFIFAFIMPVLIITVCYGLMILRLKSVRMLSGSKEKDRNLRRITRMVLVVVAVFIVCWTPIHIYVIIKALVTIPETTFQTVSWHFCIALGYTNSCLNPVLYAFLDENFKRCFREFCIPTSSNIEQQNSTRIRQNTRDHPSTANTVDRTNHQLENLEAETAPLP

SMILES | inhibition at 1 µM [%]
COc1cc(C)c(S(=O)(=O)N(C)CCOCC(=O)NC2CCC(C(c3ccccc3)N(C)C)CC2)c(C)c1C (centres unmarked) [Example 80, N-(4-((dimethylamino) (phenyl)methyl)cyclohexyl)-2-(2-(4-methoxy-N,2,3,6-tetramethylphenylsulfonamido)ethoxy)acetamide] | 93
COc1cc(C)c(S(=O)(=O)N2CCN(CCOCC(=O)NC3CCC(C(c4cccc(F)c4)N(C)C)CC3)CC2)c(C)c1C (centres unmarked) [Example 76, N-(4-((dimethylamino)(3-fluorophenyl)methyl)cyclohexyl)-2-(2-(4-(4-methoxy-2,3,6-trimethylphenylsulfonyl)piperazin-1-yl)ethoxy)acetamide] | 93
CN(C)C(c1ccccc1)C1CCC(CNC(=O)COCCN(C)S(=O)(=O)c2ccc(OC(F)(F)F)cc2)CC1 (centres unmarked) [Example 53, N-((4-((dimethylamino)(phenyl)methyl)cyclohexyl)methyl)-2-(2-(N-methyl-4-(trifluoromethoxy)phenylsulfonamido)ethoxy)acetamide] | 95
Cc1ccc(S(=O)(=O)N2CCC(OCC(=O)NCC3CCC(C(c4cccs4)N(C)C)CC3)C2)cc1 (centres unmarked) [Example 68, N-((4-((dimethylamino)(thiophen-2-yl)methyl)cyclohexyl)methyl)-2-(1-tosylpyrrolidin-3-yloxy)acetamide] | 93
CN(C)C(c1cccs1)C1CCC(NC(=O)COCCN(C)S(=O)(=O)c2ccc(Cl)cc2)CC1 (centres unmarked) [Example 83, 2-(2-(4-chloro-N-methylphenylsulfonamido)ethoxy)-N-(4-((dimethylamino) (thiophen-2-yl)methyl)cyclohexyl)acetamide] | 94
COc1ccc(S(=O)(=O)N2Cc3ccccc3CC2COCC(=O)NCCC2CCC(C(c3cccs3)N(C)C)CC2)cc1 (centres unmarked) [Example 48, N-(2-(4-((dimethylamino)(thiophen-2-yl)methyl)cyclohexyl)ethyl)-2-((2-(4-methoxyphenylsulfonyl)-1,2,3,4-tetrahydroisoquinolin-3-yl)methoxy)acetamide] | 96
COc1cc(C)c(S(=O)(=O)N(C)CCOCC(=O)NCC2CCC(C(c3cccs3)N(C)C)CC2)c(C)c1C (centres unmarked) [Example 35, N-((4-((dimethylamino)(thiophen-2-yl)methyl)cyclohexyl)methyl)-2-(2-(4-methoxy-N,2,3,6-tetramethylphenylsulfonamido)ethoxy)acetamide] | 96
CN(C)C(c1cccs1)C1CCC(CCNC(=O)COC2CCN(S(=O)(=O)c3ccc(Cl)cc3)C2)CC1 (centres unmarked) [Example 66, 2-(1-(4-chlorophenylsulfonyl)pyrrolidin-3-yloxy)-N-(2-(4-((dimethylamino)(thiophen-2-yl)methyl)cyclohexyl)ethyl)acetamide] | 93
CN(C)C(c1cccs1)C1CCC(NC(=O)COC2CCCN(S(=O)(=O)c3ccccc3)C2)CC1 (centres unmarked) [Example 42, N-(4-((dimethylamino)(thiophen-2-yl)methyl)cyclohexyl)-2-(1-(phenylsulfonyl)piperidin-3-yloxy)acetamide] | 96
COc1cc(C)c(S(=O)(=O)N2CCCC(OCC(=O)NCC3CCC(C(c4cccs4)N(C)C)CC3)C2)c(C)c1C (centres unmarked) [Example 60, N-((4-((dimethylamino)(thiophen-2-yl)methyl)cyclohexyl)methyl)-2-(1-(4-methoxy-2,3,6-trimethylphenylsulfonyl)piperidin-3-yloxy)acetamide] | 95
COc1ccc(S(=O)(=O)N2CCC(OCC(=O)NCCC3CCC(C(c4cccs4)N(C)C)CC3)C2)cc1OC (centres unmarked) [Example 94, 2-(1-(3,4-dimethoxyphenylsulfonyl)pyrrolidin-3-yloxy)-N-(2-(4-((dimethylamino)(thiophen-2-yl)methyl)cyclohexyl)ethyl)acetamide] | 93
COc1ccc(S(=O)(=O)N2CCCCC2CCOCC(=O)NC2CCC(C(c3cccc(F)c3)N(C)C)CC2)cc1 (centres unmarked) [Example 62, N-(4-((dimethylamino)(3-fluorophenyl)methyl)cyclohexyl)-2-(2-(1-(4-methoxyphenylsulfonyl)piperidin-2-yl)ethoxy)acetamide] | 95
COc1cc(C)c(S(=O)(=O)N2CCC(OCC(=O)NCC3CCC(C(c4ccccc4)N(C)C)CC3)C2)c(C)c1C (centres unmarked) [Example 44, N-((4-((dimethylamino)(phenyl)methyl)cyclohexyl)methyl)-2-(1-(4-methoxy-2,3,6-trimethylphenylsulfonyl)pyrrolidin-3-yloxy)acetamide] | 96
CN(C)C(c1cccs1)C1CCC(CCNC(=O)COCCN(C)S(=O)(=O)c2ccc(Cl)cc2)CC1 (centres unmarked) [Example 37, 2-(2-(4-chloro-N-methylphenylsulfonamido)ethoxy)-N-(2-(4-((dimethylamino)(thiophen-2-yl)methyl)cyclohexyl)ethyl)acetamide] | 96
COc1cc(C)c(S(=O)(=O)N2CCC(OCC(=O)NCC3CCC(C(c4cccs4)N(C)C)CC3)C2)c(C)c1C (centres unmarked) [Example 58, N-((4-((dimethylamino)(thiophen-2-yl)methyl)cyclohexyl)methyl)-2-(1-(4-methoxy-2,3,6-trimethylphenylsulfonyl)pyrrolidin-3-yloxy)acetamide] | 95
CN(C)C(c1cccs1)C1CCC(CNC(=O)COCCN(C)S(=O)(=O)c2cccc(C(F)(F)F)c2)CC1 (centres unmarked) [Example 92, N-((4-((dimethylamino)(thiophen-2-yl)methyl)cyclohexyl)methyl)-2-(2-(N-methyl-3-(trifluoromethyl)phenylsulfonamido)ethoxy)acetamide] | 94
CN(C)C(c1cccc(F)c1)C1CCC(CNC(=O)COCC2CCCCN2S(=O)(=O)c2ccc(Cl)c(Cl)c2)CC1 (centres unmarked) [Example 87, 2-((1-(3,4-dichlorophenylsulfonyl)piperidin-2-yl)methoxy)-N-((4-((dimethylamino)(3-fluorophenyl)methyl)cyclohexyl)methyl)acetamide] | 93
COc1ccc(S(=O)(=O)N2CCCCC2COCC(=O)NCC2CCC(C(c3cccs3)N(C)C)CC2)c(OC)c1 (centres unmarked) [Example 49, 2-((1-(2,4-dimethoxyphenylsulfonyl)piperidin-2-yl)methoxy)-N-((4-((dimethylamino)(thiophen-2-yl)methyl)cyclohexyl)methyl)acetamide] | 96
COc1cc(C)c(S(=O)(=O)N2CCN(CCOCC(=O)NCC3CCC(C(c4ccccc4)N(C)C)CC3)CC2)c(C)c1C (centres unmarked) [Example 61, N-((4-((dimethylamino)(phenyl)methyl)cyclohexyl)methyl)-2-(2-(4-(4-methoxy-2,3,6-trimethylphenylsulfonyl)piperazin-1-yl)ethoxy)acetamide] | 95
Cc1cc(C)c(S(=O)(=O)N2CCC(OCC(=O)NC3CCC(C(c4ccccc4)N(C)C)CC3)C2)c(C)c1 (centres unmarked) [Example 64, N-(4-((dimethylamino)(phenyl)methyl)cyclohexyl)-2-(1-(mesitylsulfonyl)pyrrolidin-3-yloxy)acetamide] | 94
COc1cc(C)c(S(=O)(=O)N2CCC(OCC(=O)NC3CCC(C(c4cccs4)N(C)C)CC3)C2)c(C)c1C (centres unmarked) [Example 43, N-(4-((dimethylamino)(thiophen-2-yl)methyl)cyclohexyl)-2-(1-(4-methoxy-2,3,6-trimethylphenylsulfonyl)pyrrolidin-3-yloxy)acetamide] | 96
CN(C)C(c1cccs1)C1CCC(CNC(=O)COC2CCN(S(=O)(=O)c3ccc(Cl)cc3)C2)CC1 (centres unmarked) [Example 54, 2-(1-(4-chlorophenylsulfonyl)pyrrolidin-3-yloxy)-N-((4-((dimethylamino)(thiophen-2-yl)methyl)cyclohexyl)methyl)acetamide] | 95
CN(C)C(c1cccc(F)c1)C1CCC(CCNC(=O)COCCN(C)S(=O)(=O)c2c(Cl)cccc2Cl)CC1 (centres unmarked) [Example 41, 2-(2-(2,6-dichloro-N-methylphenylsulfonamido)ethoxy)-N-(2-(4-((dimethylamino)(3-fluorophenyl)methyl)cyclohexyl)ethyl)acetamide] | 96
COc1ccc(S(=O)(=O)N2Cc3ccccc3CC2COCC(=O)NC2CCC(C(c3ccccc3)N(C)C)CC2)cc1 (centres unmarked) [Example 38, N-(4-((dimethylamino)(phenyl)methyl)cyclohexyl)-2-((2-(4-methoxyphenylsulfonyl)-1,2,3,4-tetrahydroisoquinolin-3-yl)methoxy)acetamide] | 96
CN(C)C(c1cccs1)C1CCC(CCNC(=O)COCCN(C)S(=O)(=O)c2ccc(F)cc2)CC1 (centres unmarked) [Example 85, N-(2-(4-((dimethylamino)(thiophen-2-yl)methyl)cyclohexyl)ethyl)-2-(2-(4-fluoro-N-methylphenylsulfonamido)ethoxy)acetamide] | 92
COc1cc(C)c(S(=O)(=O)N(C)CCOCC(=O)NCC2CCC(C(c3cccs3)N(C)C)CC2)c(C)c1 (centres unmarked) [Example 69, N-((4-((dimethylamino)(thiophen-2-yl)methyl)cyclohexyl)methyl)-2-(2-(4-methoxy-N,2,6-trimethylphenylsulfonamido)ethoxy)acetamide] | 96
CN(C)C(c1cccs1)C1CCC(CNC(=O)COCCN(C)S(=O)(=O)c2ccc(OC(F)(F)F)cc2)CC1 (centres unmarked) [Example 93, N-((4-((dimethylamino)(thiophen-2-yl)methyl)cyclohexyl)methyl)-2-(2-(N-methyl-4-(trifluoromethoxy)phenylsulfonamido)ethoxy)acetamide] | 95
COc1ccc(S(=O)(=O)N2CCCCC2CCOCC(=O)NCCC2CCC(C(c3cccs3)N(C)C)CC2)cc1 (centres unmarked) [Example 46, N-(2-(4-((dimethylamino)(thiophen-2-yl)methyl)cyclohexyl)ethyl)-2-(2-(1-(4-methoxyphenylsulfonyl)piperidin-2-yl)ethoxy)acetamide] | 96
CN(C)C(c1cccc(F)c1)C1CCC(CNC(=O)COCCN(C)S(=O)(=O)c2c(Cl)cccc2Cl)CC1 (centres unmarked) [Example 72, 2-(2-(2,6-dichloro-N-methylphenylsulfonamido)ethoxy)-N-((4-((dimethylamino)(3-fluorophenyl)methyl)cyclohexyl)methyl)acetamide] | 92

— patent US8106055B2, “Substituted amide compounds” (Gruenenthal GmbH, priority 2007, dated 2012)
